# Measured values taken from PubChem BioAssay AID2252 (Southern Research Specialized Biocontainment Screening …, 2010).
# System: THP-1 viability, CellTiter-Glo luminescence, 72 h
# Experiment: PubChem AID 2252
row,Compound,EC50
1,NC(N)=N/N=C/c1ccc(OCc2ccc(Cl)cc2Cl)cc1,5.86 µM
2,OC1(c2ccc(Cl)cc2)CCN(Cc2c[nH]c3ccccc23)CC1,9.75 µM
3,Cc1ccc(NC(=O)c2ccc([N+](=O)[O-])o2)c(C)c1,12.1 µM
4,O=C(N/N=C/c1cc(Cl)cc(Cl)c1O)c1ccncc1,5.38 µM
5,O=C(Cc1ccccc1)N/N=C/c1cc(Br)cc(Cl)c1O,3.7 µM
6,COc1c(N2CCN(C(=S)NCc3ccccc3)C(C)C2)c(F)cc2c(=O)c(C(=O)O)cn(C3CC3)c12 (centres undefined),17.9 µM
7,Clc1c(OCCCn2ccnc2)ccc2ccccc12,41.1 µM
8,S=C(Nc1cc(Cl)cc(Cl)c1)NC1CCN(Cc2ccccc2)CC1,14.6 µM
9,c1ccc2c(c1)nc(N1CCOCC1)c1c3ccccc3[nH]c21,< 0.1 µM
10,CC1(C)Oc2ccc3ccc(=O)oc3c2/C(=C/NCCN/C=C2\C(=O)C(C)(C)Oc3ccc4ccc(=O)oc4c32)C1=O,< 0.1 µM
11,CN1CCN(C(c2cccc(Cl)c2)c2ccccc2Cl)CC1 (centres undefined),35 µM
12,Oc1c(Br)cc(Br)cc1Oc1ccc(Br)cc1Br,26.9 µM
13,COc1ccc(C(=O)C[n+]2cc(Br)cc3ccccc32)cc1[N+](=O)[O-],< 0.1 µM
14,Cc1ccccc1C(=O)N/N=C/c1ccc([N+](=O)[O-])s1,16.8 µM
15,O=C(NC1CCCCC1)c1ccc([N+](=O)[O-])o1,9.5 µM
16,CCc1ccc2c(c1)C1(NN=C(c3ccc(C)cc3)S1)C(=O)N2 (centres undefined),9.42 µM
17,COc1ccc2nc(C)cc(Nc3ccc(N4CCOCC4)cc3)c2c1,45.9 µM
18,CCOC(=O)c1c(CSC(=N)N)n(C)c2cc(Br)c(OC(C)=O)cc12,16.9 µM
19,C/C(=N\NC(=O)c1ccc(CN2CCc3ccccc3C2)cc1)c1ccccc1O,7.89 µM
20,CN1CCN(c2ccccc2NC(=O)c2sc3ccccc3c2Cl)CC1,24.9 µM
21,CCCCNC(=S)Nc1ccc([N+](=O)[O-])cc1,28.8 µM
22,Oc1ccc(CN2CCCc3ccccc32)c2cccnc12,3.33 µM
23,Cc1ccc(Nc2nc(N)c3ccccc3n2)cc1Cl,13.7 µM

row,Compound,EC50
1,Cc1ccc(C(=O)N/N=C\c2ccc([N+](=O)[O-])s2)cn1,13.2 µM
2,COc1ccc(OCC(=O)Nc2ccc3c(c2)nc(CCN2CCC(C)CC2)n3C)cc1,35.1 µM
3,CC1CCC(C(C)C)C(OC(=O)Cn2c(-c3ccc(Br)cc3)[n+](C)c3ccccc32)C1 (centres undefined),2.16 µM
4,Fc1ccc([C@@H]2CCNC[C@H]2COc2ccc3c(c2)OCO3)cc1,7.59 µM
5,COc1ccc(Nc2c3c(nc4ccc(C)cc24)CCC3)cc1,19 µM
6,O=C(Nc1ccncc1)c1cc(-c2ccccn2)nc2ccccc12,23.7 µM
7,C#CCOCCOCCOCCNc1nc(N2CCN(C(=O)CCCCCCCCCCNC(=O)[C@H](CCCCN)n3cc(C)nn3)CC2)nc(N2CCN(C(=O)CCCCCCCCCCNC(=O)[C@H](CCCN=C(N)N)n3cc(C[C@@H](C)CC)nn3)CC2)n1,5.13 µM
8,CC(=O)NCc1ccc(C(=O)CCl)cc1,33.3 µM
9,CCc1c(C)n([O-])c2c([n+]1=O)CCCCC2,< 0.1 µM
10,Cc1nnc(N/N=C/c2ccccn2)[nH]c1=O,1.62 µM
11,O=C(CCN1Cc2ccccc2C1)c1ccc2c(c1)OCCO2,19 µM
12,O=C(CCl)Nc1nccs1,14.4 µM
13,Nc1cc(Cl)c2nonc2c1[N+](=O)[O-],2.73 µM
14,Cc1oc2c(O)c(O)ccc2c(=O)c1-c1ccccc1,24.9 µM
15,Clc1ccc(C(c2ccc(Cl)cc2)n2cc[n+](CC(OCc3ccc(Cl)cc3Cl)c3ccc(Cl)cc3Cl)c2)cc1 (centres undefined),1.45 µM
16,CCCCCCCCCCOC(=O)Cn1c(COc2ccccc2C)[n+](C)c2ccccc21,1.29 µM
17,Fc1ccc(Nc2c3c(nc4ccccc24)CCC3)cc1,6.33 µM
18,O=C(CSc1cccc2cccnc12)Nc1ccc(S(=O)(=O)N2CCOCC2)cc1,24.3 µM
19,CCOC(=O)c1ccccc1-n1c(C)cc(C2N=C(N)Nc3nc4ccccc4n32)c1C (centres undefined),6.21 µM
20,COc1ccc(CCN2CCC(Nc3nc4ccccc4n3Cc3ccc(F)cc3)CC2)cc1,3.8 µM
21,Cc1cc(C)c2c(N)c3ccccc3nc2n1,12.4 µM
22,Cc1nc(NC2=NCN(CCCN3CCOCC3)CN2)nc2c(C)cccc12,13.9 µM
23,O=C(N/N=C/c1sc2ccccc2c1O)c1cccc2ccccc12,2.58 µM

row,Compound,EC50
1,O=[N+]([O-])/C=C/c1cc2ccccc2[nH]1,44.9 µM
2,O=C(NNC(=S)NC(=O)c1ccco1)c1ccc(F)cc1,9.47 µM
3,CCCCCCCCCCCCCCCC[N+](C)(C)C,1.43 µM
4,Cc1nonc1C(=O)N/N=C/c1ccc([N+](=O)[O-])o1,40.7 µM
5,COc1cc(Br)cc(C=Nc2cccc(C(F)(F)F)c2)c1O,50 µM
6,Cc1cc(N2CCC(C)CC2)nc(NCc2ccccc2)n1,6.23 µM
7,Cc1cc(NC(=O)/C=C/C(=O)N(c2ccccc2C)C(C(=O)NC2CCCC2)c2ccc(F)cc2)no1 (centres undefined),37.5 µM
8,COc1cc(/C=N/NC(=O)c2cncc(Br)c2)cc([N+](=O)[O-])c1O,38.1 µM
9,Cc1ccc(C(C[N+](=O)[O-])Sc2ccc(N)cc2)cc1 (centres undefined),21.8 µM
10,CC1(C)N=C(N)N=C(N)N1c1ccc(Oc2ccc(Cl)cc2)c(Cl)c1,2.45 µM
11,Cc1cc(C)c2sc(N(CCCN(C)C)C(=O)COc3ccc(Cl)cc3)nc2c1,17.7 µM
12,CCc1ccc(N2CC(C(=O)N/N=C/c3cc([N+](=O)[O-])ccc3O)CC2=O)cc1 (centres undefined),11.3 µM
13,O[C@@H](c1cc(C(F)(F)F)nc2c(C(F)(F)F)cccc12)[C@H]1CCCCN1,3.98 µM
14,O=C(Nc1ccc(Cl)cc1)N1CCOC12CCC1(CC2)OCCO1,< 0.1 µM
15,CC(=O)c1c(C)nc(-c2cccc([N+](=O)[O-])c2)n1O,< 0.1 µM
16,O=C(Nc1ccccc1)Nc1cccc(Cl)c1,43.7 µM
17,CN1CCc2c(sc(NC(=O)c3ccc([N+](=O)[O-])o3)c2C(N)=O)C1,0.7 µM
18,C#CCOCCOCCOCCNc1nc(N2CCN(C(=O)CCCCCCCCCCNC(=O)Cn3cc(CCCCCN)nn3)CC2)nc(N2CCN(C(=O)CCCCCCCCCCNC(=O)[C@@H]([C@H](C)O)n3cc(C)nn3)CC2)n1,< 0.1 µM
19,Cc1ccc(C(=O)Sc2cccccc2=O)cc1,2.27 µM
20,Cc1ccc(-c2nc(C(=O)NCCCN(C)C)cc3c2[nH]c2ccccc23)cc1,10.7 µM
21,CCCCCCCCCC[N+](C)(C)CC/C=C1/c2ccccc2Sc2ccc(Cl)cc21,1.99 µM
22,CCN1CCN(CCNC(=O)c2ccc3c(c2)N(Cc2ccc(F)cc2)C(=O)/C(=C/c2ccccc2)S3)CC1,9.43 µM
23,COc1cc(C(=O)O/N=C2\C=CC(=O)C(C)=C2)cc(OC)c1OC,7.36 µM

row,Compound,EC50
1,CC(C)(C)Nc1nc(-c2ccccn2)nc2ccccc12,3.45 µM
2,COc1ccc(C(=O)N/N=C/c2sc3ccccc3c2O)cc1,3.36 µM
3,COc1ccc(C2NCCc3c2[nH]c2ccccc32)cc1COc1ccc(F)cc1 (centres undefined),6.94 µM
4,N=c1c2c(n(Cc3cccc(Cl)c3)c3c1CCC3)CCCC2,13.5 µM
5,Oc1ccc(C[C@H]2CNCCN2CCCCC2CCCCC2)cc1,8.99 µM
6,O=C(Nc1cccc(Cl)c1)Nc1nccs1,33.8 µM
7,CC(=O)CC1OC(=O)C(Br)=C1NCc1ccccc1 (centres undefined),9.9 µM
8,O=C(N/N=C/c1cc(Br)cc(Br)c1O)c1ccncc1,4.01 µM
9,O=C1C(Cl)=C(NCc2cccnc2)C(=O)c2ccccc21,12.5 µM
10,COc1nccnc1NS(=O)(=O)c1ccc(N=Cc2c(C)[nH]n(-c3ccc(C)c(C)c3)c2=O)cc1,14.4 µM
11,O=C(N/N=C/c1ccc([N+](=O)[O-])o1)C(O)c1ccccc1 (centres undefined),17.9 µM
12,CC(NCC(O)COc1ccc2ccccc2c1)c1ccccc1 (centres undefined),6.71 µM
13,COc1ccc(Nc2nc(-c3ccccc3)nc3ccccc23)cc1S(=O)(=O)N1CCOCC1,39 µM
14,CCCCCCCCCCOC(=O)Cn1c(COc2ccccc2OC)[n+](C)c2ccccc21,1.64 µM
15,O=C(Nc1nnc(-c2cccs2)o1)c1cccc(C(F)(F)F)c1,14.3 µM
16,COc1ccc(/C=N/Nc2cc(C)nc3ccccc23)cc1,7.03 µM
17,CN(C)CCCNC(=O)c1ccc(-c2nc(-c3ccc(Cl)cc3)cs2)cc1,3.96 µM
18,CC1(C)CC(N2CCN(c3ccccc3)CC2)=CC(=[N+]2CCCC2)C1,8.86 µM
19,O=C(Oc1c(Cl)cc(Cl)c2cccnc12)c1ccco1,11.6 µM
20,O=C(Nc1nnc(C(F)(F)F)s1)c1ccc(Br)s1,22.2 µM
21,O=C(CN1C2=NCCN2c2ccccc21)c1ccco1,< 0.1 µM
22,Cn1c(CCN2CCN(c3ccccn3)CC2)nc2cc(NC(=O)COc3ccccc3)ccc21,22.1 µM
23,O=c1[nH][nH]c(-c2ccccc2O)c1C(C[N+](=O)[O-])c1ccc(Br)cc1 (centres undefined),21.1 µM

row,Compound,EC50
1,CC1(C)CC(N2CCN(C(c3ccccc3)c3ccccc3)CC2)=CC(=[N+]2CCCCC2)C1,1.05 µM
2,Cc1ccc(NC(=O)COc2ccccc2CNC(C)(C)CC(C)(C)C)cc1,9.23 µM
3,CC(NCc1ccc(Cl)c(Cl)c1)C(O)c1ccccc1 (centres undefined),30.6 µM
4,Cc1cc(N/N=C/c2ccc(F)cc2)nc(NCc2ccccc2)n1,22.5 µM
5,CCCOc1ccc(C(=O)NNC(=S)NC(=O)c2ccco2)cc1,16.8 µM
6,Cc1ccc(C[n+]2c(-c3ccc(C)cc3)cc(-c3ccc(C)cc3)cc2-c2ccc(C)cc2)cc1,0.22 µM
7,Cc1ccc(N2C(N)=C(C#N)C(c3cccnc3)C3=C2CC(C)(C)CC3=O)cc1 (centres undefined),32.9 µM
8,COc1ccc2[nH]cc(C(=O)CCl)c2c1,7.78 µM
9,CCCCCCCCCCn1c2c(c(=N)c3c1CCC3)CCC2,0.21 µM
10,CCN(CC)c1cc(C)c2cc(NC(=O)c3ccccc3F)ccc2n1,8.98 µM
11,O=C1c2ccc3c4c(ccc(c24)C(=O)N1c1cccc(O)c1)C(=O)N(c1cccc(O)c1)C3=O,2.74 µM
12,CN(C)c1ccc(/C=C/c2ccc3ccccc3[n+]2C)cc1,0.71 µM
13,O=C(Cc1ccccc1)NNC(=S)NC(=O)c1cccs1,17.5 µM
14,c1ccc(CNc2nc(-c3ccccn3)nc3ccccc23)cc1,1.72 µM
15,Cc1cc(N/N=C/c2ccc(O)cc2)c2cccc(C)c2n1,7.3 µM
16,O=c1c2ccccc2nc(-c2cccc(Cl)c2)n1O,18.2 µM
17,Cc1ccc(OCC(O)Cn2c(=N)n(CCN3CCCCC3)c3ccccc32)cc1 (centres undefined),5.35 µM
18,Cc1ccc(C(=O)NNC(=S)NC(=O)c2ccccc2)cc1,8.09 µM
19,CNCCCCOc1ccc(C(C)(C)C)cc1Cl,21.8 µM
20,Cc1ccc(-c2csc(N=C(N)N)n2)c(C)c1,26.9 µM
21,O=C(CSc1ccccn1)Nc1nonc1[N+](=O)[O-],6.9 µM
22,COc1cc(CNCCc2c[nH]c3ccccc23)ccc1OCc1ccccc1F,13.1 µM
